Test results: patent US20230106506A1, “NOVEL PqsR INVERSE AGONISTS” (Helmholtz-Zentrum Fur Infektionsforschung GmbH, priority 2020, published 2023)

Experiments:
[1] = tested on: P. aeruginosa pyocyanin production; assay: Pyocyanin assay; assay type: cell-based, P. aeruginosa strain PA14; settings: Pseudomonas aeruginosa, PA14, 16 h, read-out: IC50-value towards pyocyanin production
Description: Inhibition of P. aeruginosa pyocyanin production by compounds was determined photometrically as described before. In short, an overnight culture of PA14 in PPGAS medium was washed, diluted in medium to a start OD600 of 0.02, and incubated for 16 h (37° C., 200 rpm, relative humidity 75%) in the presence of test compounds. Then, cultures were extracted with chloroform and re-extracted with 0.2 M HCl. Protonated red colored pyocyanin was determined by measuring OD520 and normalizing to OD600.

[2] = Kinetic turbidimetric aqueous solubility; assay type: physicochemical; settings: aqueous buffer, kinetic from dmso stock; PBS buffer, final DMSO 2%, absorbance 620 nm; read-out: Kinetic Turbidimetric Aqueous Solubility at room temperature for 5 min
Description: Kinetic Turbidimetric Aqueous Solubility at room temperature for 5 min. […] Data was analyzed by fitting a four parameter sigmoidal function to the measured and normalized absorbances and AUC calculation providing access to Log S (decadic logarithm of the solubility).

[3] = Metabolic stability in mouse liver microsomes (MLM); assay type: in vitro ADME; settings: 1 μM compound, 0.5 mg/mL MLM, 1 mM NADPH, 37° C., read-out: half-life (t1/2) towards MLM
Description: For the evaluation of phase I metabolic stability, the compound (1 μM) was incubated with 0.5 mg/mL MLM (Corning) and 1 mM NADPH at 37° C. for 0, 5, 10, 15 and 30 min. The metabolic stability of Verapamil, Diphenhydramine and Benzydamine (1 μM each) were determined in parallel to confirm the enzymatic activity of the MLM. The incubation was stopped by addition of 2 volumes of acetonitrile containing internal standard (1 μM Leucine Enkephaline). Samples were centrifuged (15 min, 3,500 rpm). Concentration of the remaining test compound at the different time points was analyzed by HPLC-MS/MS and used to determine half-life (t1/2).

SMILES	IC50 [1] [nM]	solubility at 5 min [2] [µM]	half-life at 1 µM [3] [h]
N#Cc1cc(-c2ncc(CNc3cc(-n4cncn4)nc(C(F)(F)F)c3)cn2)ccc1Cl [Compound 39, 5-(5-(((2-(1H-1,2,4-Triazol-1-yl)-6-(trifluoromethyl)pyridin-4-yl)amino)methyl)pyrimidin-2-yl)-2-chlorobenzonitrile]	101 to 200	> 10	> 1.67
Fc1cc(-c2ncc(CNc3cc(-c4cn[nH]c4)nc(C(F)(F)F)c3)cn2)ccc1Cl [Compound 34, N-((2-(4-Chloro-3-fluorophenyl)pyrimidin-5-yl)methyl)-2-(1H-pyrazol-4-yl)-6-(trifluoromethyl)pyridin-4-amine]	201 to 500	> 10	> 1.67
CC(C)Oc1ccc(-c2cnc(CNc3cc(-c4cn[nH]c4)nc(C(F)(F)F)c3)cn2)cc1 [Compound 27, N-((5-(4-Isopropoxyphenyl)pyrazin-2-yl)methyl)-2-(1H-pyrazol-4-yl)-6-(trifluoromethyl)pyridin-4-amine]	101 to 200	> 25	> 1.67
FC(F)(F)Oc1ccc(-c2ncc(CNc3cc(-c4cn[nH]c4)nc(C(F)(F)F)c3)cn2)cc1 [Compound 55, 2-(1H-Pyrazol-4-yl)-N-((2-(4-(trifluoromethoxy)phenyl)pyrimidin-5-yl)methyl)-6-(trifluoromethyl)pyridin-4-amine]	201 to 500	> 10	> 1.67
CC(C)Oc1ccc(-c2cnc(CNc3cc(-c4cn[nH]c4)nc(C(F)(F)F)c3)cn2)cc1Cl [Compound 57, N-((5-(3-Chloro-4-isopropoxyphenyl)pyrazin-2-yl)methyl)-2-(1H-pyrazol-4-yl)-6-(trifluoromethyl)pyridin-4-amine]	101 to 200	> 25	> 1.67
CC(C)Oc1ccc(-c2ccc(CNc3cc(-c4cn[nH]c4)nc(C(F)(F)F)c3)nc2)cc1Cl [Compound 24, N-((5-(3-Chloro-4-isopropoxyphenyl)pyridin-2-yl)methyl)-2-(1H-pyrazol-4-yl)-6-(trifluoromethyl)pyridin-4-amine]	201 to 500	> 10	> 1.67
CC(C)Oc1ccc(-c2ncc(CNc3cc(-n4cncn4)nc(C(F)(F)F)c3)cn2)cc1Cl [Compound 60, N-((2-(3-Chloro-4-isopropoxyphenyl)pyrimidin-5-yl)methyl)-2-(1H-1,2,4-triazol-1-yl)-6-(trifluoromethyl)pyridin-4-amine]	101 to 200	> 10	1.02 to 1.67
FC(F)(F)c1cc(NCc2nc3cc(Oc4ccccc4)ccc3[nH]2)cc(-n2ccnc2)n1 [Compound 61, 2-(1H-imidazol-1-yl)-N-((5-phenoxy-1H-benzo[d]imidazol-2-yl)methyl)-6-(trifluoromethyl)pyridin-4-amine]	101 to 200	> 10	0.5 to 1
Nc1ccc(Oc2ccc(-c3ncc(CNc4cc(-c5cn[nH]c5)nc(C(F)(F)F)c4)cn3)cc2)cc1 [Compound 56, N-((2-(4-(4-Aminophenoxy)phenyl)pyrimidin-5-yl)methyl)-2-(1H-pyrazol-4-yl)-6-(trifluoromethyl)pyridin-4-amine]	101 to 200	> 10	1.02 to 1.67
FC(F)(F)c1cc(NCc2cnc(-c3ccc(Cl)cc3)nc2)cc(-c2cn[nH]c2)n1 [Compound 33, N-((2-(4-Chlorophenyl)pyrimidin-5-yl)methyl)-2-(1H-pyrazol-4-yl)-6-(trifluoromethyl)pyridin-4-amine]	201 to 500	> 10	1.02 to 1.67
CC(C)Oc1ccc(-c2ccc(CNc3cc(-c4cn[nH]c4)nc(C(F)(F)F)c3)cn2)cc1 [Compound 21, N-((6-(4-Isopropoxyphenyl)pyridin-3-yl)methyl)-2-(1H-pyrazol-4-yl)-6-(trifluoromethyl)pyridin-4-amine]	101 to 200	> 25	> 1.67
CC(C)Oc1ccc(-c2cnc(CNc3cc(-c4cn[nH]c4)nc(C(F)(F)F)c3)nc2)cc1Cl [Compound 47, N-((5-(3-Chloro-4-isopropoxyphenyl)pyrimidin-2-yl)methyl)-2-(1H-pyrazol-4-yl)-6-(trifluoromethyl)pyridin-4-amine]	201 to 500	> 10	0.5 to 1
CC(C)Oc1ccc(-c2ccc(CNc3cc(-c4cn[nH]c4)nc(C(F)(F)F)c3)cn2)cc1Cl [Compound 23, N-((6-(3-Chloro-4-isopropoxyphenyl)pyridin-3-yl)methyl)-2-(1H-pyrazol-4-yl)-6-(trifluoromethyl)pyridin-4-amine]	201 to 500	> 25	> 1.67
Fc1ccccc1Oc1ccc(-c2ncc(CNc3cc(-c4cn[nH]c4)nc(C(F)(F)F)c3)cn2)cc1 [Compound 51, N-((2-(4-(2-Fluorophenoxy)phenyl)pyrimidin-5-yl)methyl)-2-(1H-pyrazol-4-yl)-6-(trifluoromethyl)pyridin-4-amine]	101 to 200	> 50	> 1.67
CC(C)Oc1ccc(-c2ncc(CNc3cc(-c4cn[nH]c4)nc(C(F)(F)F)c3)cn2)cc1 [Compound 28, N-((2-(4-Isopropoxyphenyl)pyrimidin-5-yl)methyl)-2-(1H-pyrazol-4-yl)-6-(trifluoromethyl)pyridin-4-amine]	≤ 100	> 25	1.02 to 1.67
CC(C)Oc1ccc(-c2ccc(CNc3cc(-c4cn[nH]c4)nc(C(F)(F)F)c3)nc2)cc1 [Compound 20, N-((5-(4-Isopropoxyphenyl)pyridin-2-yl)methyl)-2-(1H-pyrazol-4-yl)-6-(trifluoromethyl)pyridin-4-amine]	101 to 200	> 10	> 1.67
CC(C)Oc1ccc(-c2ncc(CNc3cc(-c4cc[nH]n4)nc(C(F)(F)F)c3)cn2)cc1 [Compound 31, N-((2-(4-Isopropoxyphenyl)pyrimidin-5-yl)methyl)-2-(1H-pyrazol-3-yl)-6-(trifluoromethyl)pyridin-4-amine]	201 to 500	> 10	> 1.67
FC(F)(F)c1cc(NCc2cnc(-c3ccc(Cl)c(Cl)c3)nc2)cc(-c2cn[nH]c2)n1 [Compound 35, N-((2-(3,4-Dichlorophenyl)pyrimidin-5-yl)methyl)-2-(1H-pyrazol-4-yl)-6-(trifluoromethyl)pyridin-4-amine]	101 to 200	> 10	> 1.67
CC(C)Oc1ccc(-c2ncc(CNc3cc(-c4cn[nH]c4)nc(C(F)(F)F)c3)cn2)cc1F [Compound 49, N-((2-(3-Fluoro-4-isopropoxyphenyl)pyrimidin-5-yl)methyl)-2-(1H-pyrazol-4-yl)-6-(trifluoromethyl)pyridin-4-amine]	101 to 200	> 10	> 1.67
CC(C)Oc1ccc(-c2ccc(CNc3cc(-c4cn[nH]c4)nc(C(F)(F)F)c3)nn2)cc1Cl [Compound 58, N-((6-(3-Chloro-4-isopropoxyphenyl)pyridazin-3-yl)methyl)-2-(1H-pyrazol-4-yl)-6-(trifluoromethyl)pyridin-4-amine]	101 to 200	> 25	> 1.67
